# Measurements published in publication PMC9804781, “Identification of a Novel Pseudo‐Natural Product Type IV IDO1 Inhibitor Chemotype” (Angewandte Chemie (International Ed. in English), 2022).
# Biological target: T1, rhIDO1 (holo-IDO1) (Homo sapiens, UniProt P14902)
# T1 construct: His; made in house; host or cells: E. coli
# Experiment: UV/Vis spectrophotometry of the Soret peak (heme loss)
# Assay type: binding
# Details: holo-IDO1, 2 h at 37 °C
# Description: using the ChemiDoc MP Imaging System (Bio-Rad Laboratories, DE). IDO1 protein levels were normalized to the levels of reference protein vinculin.
# BxPC-3 cells (10,000 cells/well) were seeded in 96-well plates and incubated for 24 h prior to addition of 50 ng/mL IFN-γ and compounds at indicated concentrations for 48 h. Cells were fixed with 4% paraformaldehyde for 20 min at room temperature followed by permeabilization with 0.5% Triton X-100 for 15 min at room temperature. Afterwards, unspecific binding sites were blocked with 5% non-fat milk in PBS with 0.1% (v/v) Tween-20 (PBS-T) for 60 min at room temperature followed by overnight incubation at 4°C with the primary antibodies. […]
# 11 µM rhIDO1 was incubated with compounds at indicated concentrations for 60 min at 37°C in 50 mM potassium phosphate buffer (16.9 mM K2HPO4, 33.1 mM, KH2PO4, pH 6.5). The thermal protein stability from 20°C to 90°C (1°C/min) was measured by means of the intrinsic tryptophan/tyrosine fluorescence using the Prometheus™ NT.48 (NanoTemper® Technologies, DE). Melting scans, first derivatives of melting scans and melting temperatures were analyzed using PR.ThermControl software (NanoTemper® Technologies, DE). […]
# transparent microplates (UV-STAR®, Greiner AG, AT). Subsequently, absorbance spectra from 250 nm to 550 nm were recorded on the Spark® Multimode Microplate Reader (Tecan, AT). […]
# T1 sequence (P14902 whole entry): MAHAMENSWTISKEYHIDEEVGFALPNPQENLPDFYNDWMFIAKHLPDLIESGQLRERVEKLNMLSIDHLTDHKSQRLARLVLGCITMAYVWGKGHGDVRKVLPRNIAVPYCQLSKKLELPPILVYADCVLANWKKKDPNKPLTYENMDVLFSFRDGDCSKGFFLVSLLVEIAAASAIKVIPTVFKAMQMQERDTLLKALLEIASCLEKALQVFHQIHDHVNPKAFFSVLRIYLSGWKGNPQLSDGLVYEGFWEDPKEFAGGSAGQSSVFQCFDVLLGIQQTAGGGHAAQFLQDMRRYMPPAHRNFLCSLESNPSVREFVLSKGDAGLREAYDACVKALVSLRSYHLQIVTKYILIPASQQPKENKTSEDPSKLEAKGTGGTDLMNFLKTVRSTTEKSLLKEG
structure (smiles),measurement,value
CCOC(=O)C1=CC[C@](C(=O)OC)(c2cc3ccccc3n2C)N(S(=O)(=O)c2ccc(C)cc2)[C@@H]1C(=O)OC(C)(C)C [Compound 3d],effect on Soret peak at 404 nm (heme loss),reduced the Soret peak
